Measurements: PubChem BioAssay (NCI)
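Cultured in 96-well plates, cells were exposed to test compound for 48 hours across five concentrations. Here, GI50 denotes the concentration required for 50% inhibition of growth. TGI: total growth inhibition.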

Assays:
Experiment in all cases: growth of human tumour cells (NCI), 48 h
NCI/ADR-RES ovarian = system: NCI/ADR-RES ovarian
SN12C renal = system: SN12C renal
COLO 205 colon = system: COLO 205 colon
SF-539 CNS = system: SF-539 CNS
MOLT-4 leukemia = system: MOLT-4 leukemia
LOX IMVI melanoma = system: LOX IMVI melanoma
EKVX NSCLC = system: EKVX NSCLC
SK-MEL-5 melanoma = system: SK-MEL-5 melanoma
SK-MEL-2 melanoma = system: SK-MEL-2 melanoma
SF-268 CNS = system: SF-268 CNS
UO-31 renal = system: UO-31 renal
OVCAR-8 ovarian = system: OVCAR-8 ovarian
CAKI-1 renal = system: CAKI-1 renal
IGROV1 ovarian = system: IGROV1 ovarian
MDA-MB-435 = system: MDA-MB-435
OVCAR-5 ovarian = system: OVCAR-5 ovarian
DU-145 prostate = system: DU-145 prostate
M14 melanoma = system: M14 melanoma
MDA-MB-231 breast = system: MDA-MB-231 breast
SW-620 colon = system: SW-620 colon
NCI-H226 lung = system: NCI-H226 lung
SNB-75 CNS = system: SNB-75 CNS
A549 NSCLC = system: A549 NSCLC
TK-10 renal = system: TK-10 renal
MCF7 breast = system: MCF7 breast
NCI-H460 lung = system: NCI-H460 lung
A498 renal = system: A498 renal
HCC-2998 colon = system: HCC-2998 colon
CCRF-CEM leukemia = system: CCRF-CEM leukemia
K-562 leukemia = system: K-562 leukemia
UACC-257 melanoma = system: UACC-257 melanoma
NCI-H23 lung = system: NCI-H23 lung
UACC-62 melanoma = system: UACC-62 melanoma
OVCAR-4 ovarian = system: OVCAR-4 ovarian
SF-295 CNS = system: SF-295 CNS
T-47D breast = system: T-47D breast
HCT-116 colon = system: HCT-116 colon
RXF 393 renal = system: RXF 393 renal
U251 CNS = system: U251 CNS
SK-OV-3 ovarian = system: SK-OV-3 ovarian
MALME-3M melanoma = system: MALME-3M melanoma
SK-MEL-28 melanoma = system: SK-MEL-28 melanoma
HT29 colon = system: HT29 colon
HS 578T breast = system: HS 578T breast
ACHN renal = system: ACHN renal
SR leukemia = system: SR leukemia
HCT-15 colon = system: HCT-15 colon
KM12 colon = system: KM12 colon
HOP-92 NSCLC = system: HOP-92 NSCLC
HOP-62 NSCLC = system: HOP-62 NSCLC
PC-3 prostate = system: PC-3 prostate
NCI-H522 lung = system: NCI-H522 lung
HL-60(TB) leukemia = system: HL-60(TB) leukemia
OVCAR-3 ovarian = system: OVCAR-3 ovarian
SNB-19 CNS = system: SNB-19 CNS
786-0 renal = system: 786-0 renal
RPMI-8226 leukemia = system: RPMI-8226 leukemia
BT-549 breast = system: BT-549 breast

CC1=C(SCCC(=O)OCC(=O)NCCC[Te]c2ccccc2)C(=O)c2ccccc2C1=O
GI50 (NCI/ADR-RES ovarian): 2.22 µM | TGI (NCI/ADR-RES ovarian): 7.32 µM | GI50 (SN12C renal): 2.21 µM | TGI (SN12C renal): 7.99 µM | GI50 (COLO 205 colon): 1.97 µM | TGI (COLO 205 colon): 3.88 µM | GI50 (SF-539 CNS): 2.29 µM | TGI (SF-539 CNS): 6.71 µM | GI50 (MOLT-4 leukemia): 3.12 µM | TGI (MOLT-4 leukemia): 12.2 µM | GI50 (LOX IMVI melanoma): 1.72 µM | TGI (LOX IMVI melanoma): 4.07 µM | GI50 (EKVX NSCLC): 0.443 µM | TGI (EKVX NSCLC): 5.11 µM | GI50 (SK-MEL-5 melanoma): 1.52 µM | TGI (SK-MEL-5 melanoma): 2.88 µM | GI50 (SK-MEL-2 melanoma): 2.75 µM | TGI (SK-MEL-2 melanoma): 7.24 µM | GI50 (SF-268 CNS): 2.61 µM | TGI (SF-268 CNS): 9.42 µM | GI50 (UO-31 renal): 1.74 µM | TGI (UO-31 renal): 8.66 µM | GI50 (OVCAR-8 ovarian): 2.74 µM | TGI (OVCAR-8 ovarian): 11 µM | GI50 (CAKI-1 renal): 1.86 µM | TGI (CAKI-1 renal): 6.87 µM | GI50 (IGROV1 ovarian): 1.92 µM | TGI (IGROV1 ovarian): 5.58 µM | GI50 (MDA-MB-435): 3.07 µM | TGI (MDA-MB-435): 10.4 µM | GI50 (OVCAR-5 ovarian): 2.86 µM | TGI (OVCAR-5 ovarian): 7.68 µM | GI50 (DU-145 prostate): 2.95 µM | TGI (DU-145 prostate): 8.05 µM | GI50 (M14 melanoma): 2.11 µM | TGI (M14 melanoma): 5.27 µM | GI50 (MDA-MB-231 breast): 1.8 µM | TGI (MDA-MB-231 breast): 4.34 µM | GI50 (SW-620 colon): 3.79 µM | TGI (SW-620 colon): 15.6 µM | GI50 (NCI-H226 lung): 1.64 µM | TGI (NCI-H226 lung): 3.64 µM | GI50 (SNB-75 CNS): 1.37 µM | TGI (SNB-75 CNS): 5.42 µM | GI50 (A549 NSCLC): 0.793 µM | TGI (A549 NSCLC): 2.95 µM | GI50 (TK-10 renal): 3.87 µM | TGI (TK-10 renal): 12.4 µM | GI50 (MCF7 breast): 2.5 µM | TGI (MCF7 breast): 10.7 µM | GI50 (NCI-H460 lung): 0.79 µM | TGI (NCI-H460 lung): 3 µM | GI50 (A498 renal): 1.9 µM | TGI (A498 renal): 6.16 µM | GI50 (HCC-2998 colon): 1.78 µM | TGI (HCC-2998 colon): 4.58 µM | GI50 (CCRF-CEM leukemia): 2.1 µM | TGI (CCRF-CEM leukemia): 19.6 µM | GI50 (K-562 leukemia): 3.3 µM | TGI (K-562 leukemia): 19.4 µM | GI50 (UACC-257 melanoma): 2.88 µM | TGI (UACC-257 melanoma): 8.23 µM | GI50 (NCI-H23 lung): 1.84 µM | TGI (NCI-H23 lung): 5.25 µM | GI50 (UACC-62 melanoma): 1.94 µM | TGI (UACC-62 melanoma): 4.83 µM | GI50 (OVCAR-4 ovarian): 2.21 µM | TGI (OVCAR-4 ovarian): 7.34 µM | GI50 (SF-295 CNS): 1.11 µM | TGI (SF-295 CNS): 4.24 µM | GI50 (T-47D breast): 2.2 µM | TGI (T-47D breast): 6.21 µM | GI50 (HCT-116 colon): 1.63 µM | TGI (HCT-116 colon): 4.12 µM | GI50 (RXF 393 renal): 1.78 µM | TGI (RXF 393 renal): 5.16 µM | GI50 (U251 CNS): 2.39 µM | TGI (U251 CNS): 8.06 µM | GI50 (SK-OV-3 ovarian): 1.9 µM | TGI (SK-OV-3 ovarian): 4.62 µM | GI50 (MALME-3M melanoma): 2.22 µM | TGI (MALME-3M melanoma): 5.56 µM | GI50 (SK-MEL-28 melanoma): 2.41 µM | TGI (SK-MEL-28 melanoma): 5.78 µM | GI50 (HT29 colon): 3.29 µM | TGI (HT29 colon): 11.1 µM | GI50 (HS 578T breast): 2.97 µM | TGI (HS 578T breast): > 33.7 µM | GI50 (ACHN renal): 2.76 µM | TGI (ACHN renal): 10.2 µM | GI50 (SR leukemia): 1.97 µM | TGI (SR leukemia): 17.4 µM | GI50 (HCT-15 colon): 2.73 µM | TGI (HCT-15 colon): 11.4 µM | GI50 (KM12 colon): 2.96 µM | TGI (KM12 colon): 10.1 µM | GI50 (HOP-92 NSCLC): 1.8 µM | TGI (HOP-92 NSCLC): 5.01 µM | GI50 (HOP-62 NSCLC): 2.04 µM | TGI (HOP-62 NSCLC): 5.19 µM | GI50 (PC-3 prostate): 1.96 µM | TGI (PC-3 prostate): 9.76 µM | GI50 (NCI-H522 lung): 2.71 µM | TGI (NCI-H522 lung): 10.8 µM | GI50 (HL-60(TB) leukemia): 2.58 µM | TGI (HL-60(TB) leukemia): 7.07 µM | GI50 (OVCAR-3 ovarian): 2.23 µM | TGI (OVCAR-3 ovarian): 4.81 µM | GI50 (SNB-19 CNS): 2.78 µM | TGI (SNB-19 CNS): 10.4 µM | GI50 (786-0 renal): 2.64 µM | TGI (786-0 renal): 7.33 µM | GI50 (RPMI-8226 leukemia): 2.64 µM | TGI (RPMI-8226 leukemia): 9.84 µM | GI50 (BT-549 breast): 1.7 µM | TGI (BT-549 breast): 3.95 µM
